# Results reported in patent US20170050957A1, “4-AMINO-6-(HETEROCYCLIC)PICOLINATES AND 6-AMINO-2-(HETEROCYCLIC)PYRIMIDINE-4-CARBOXYLATES AND THEIR USE AS HERBICIDES” (Dow AgroSciences LLC, priority 2013, published 2017).
# Where two headings read alike, the source gives them in different places.
# How the values were obtained:
# [1] = system: Key Broadleaf Weed and Crop Species; test: Post-emergent Test II herbicidal activity (Table 15); type: in vivo; details: post-emergence, 336 h, 140 g ai/ha, 14 d
# Method: Post-emergent Test II: Seeds or nutlets of the desired test plant species were planted in Sun Gro Metro-Mix® 360 planting mixture, which typically has a pH of 6.0 to 6.8 and an organic matter content of about 30 percent, in plastic pots with a surface area of 64 square centimeters. When required to ensure good germination and healthy plants, a fungicide treatment and/or other chemical or physical treatment was applied. The plants were grown for 7-21 d in a greenhouse with an approximate 15 h photoperiod which was maintained at about 23-29° C. during the day and 22-28° C. during the night. Nutrients and water were added on a regular basis and supplemental lighting was provided with overhead metal halide 1000-Watt lamps as necessary. The plants were employed for testing when they reached the first or second true leaf stage.
# A weighed amount, determined by the highest rate to be tested, of each test compound was placed in a 25 mL glass vial and was dissolved in 4 mL of a 97:3 v/v mixture of acetone and DMSO to obtain concentrated stock solutions. […] The concentrated stock solutions obtained were diluted with 20 mL of an aqueous mixture containing acetone, water, isopropyl alcohol, DMSO, Atplus 411F crop oil concentrate, and Triton® X-155 surfactant in a 48.5:39:10:1.5:1.0:0.02 v/v ratio to obtain spray solutions containing the highest application rates. Additional application rates were obtained by serial dilution of 12 mL of the high rate solution into a solution containing 2 mL of 97:3 v/v mixture of acetone and DMSO and 10 mL of an aqueous mixture containing acetone, water, isopropyl alcohol, DMSO, Atplus 411F crop oil concentrate, and Triton X-155 surfactant in a 48.5:39:10:1.5:1.0:0.02 v/v ratio to obtain 1/2×, 1/4×, 1/8× and 1/16× rates of the high rate. Compound requirements are based upon a 12 mL application volume at a rate of 187 liters per hectare (L/ha). Formulated compounds were applied to the plant material with an overhead Mandel track sprayer equipped with 8002E nozzles calibrated to deliver 187 L/ha over an application area of 0.503 square meters at a spray height of 18 inches (43 cm) above the average plant canopy height. Control plants were sprayed in the same manner with the solvent blank.
# The treated plants and control plants were placed in a greenhouse as described above and watered by subirrigation to prevent wash-off of the test compounds. After 14 d, the condition of the test plants as compared with that of the untreated plants was determined visually and scored on a scale of 0 to 100 percent where 0 corresponds to no injury and 100 corresponds to complete kill.
# [2] = system: Key Grass and Sedge Weeds as well as Grass Crops; test: Post-emergent Test II herbicidal activity (Table 16); type: in vivo; details: post-emergence, 336 h, 140 g ai/ha, 14 days after application
# How it was run: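 Post-emergence spray; seedlings 7-21 d old, 1st-2nd true leaf; 187 L/ha; serial rates 1×-1/16×; solvent blank controls; subirrigated; visual % injury at 14 d.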
# [3] = Abutilon theophrasti, velvetleaf (Abutilon theophrasti), read-out: Visual Growth Reduction (%) 14 Days After Application, ABUTH
# [4] = Brassica napus, oilseed rape, canola (Brassica napus), read-out: Visual Growth Reduction (%) 14 Days After Application, BRSNN
# [5] = Chenopodium album, lambsquarters (Chenopodium album), read-out: Visual Growth Reduction (%) 14 Days After Application, CHEAL
# [6] = Euphorbia heterophylla, wild poinsettia (Euphorbia heterophylla), read-out: Visual Growth Reduction (%) 14 Days After Application, EPHHL
# [7] = Helianthus annuus, sunflower (Helianthus annuus), read-out: Visual Growth Reduction (%) 14 Days After Application, HELAN
# [8] = Cyperus esculentus, yellow nutsedge (Cyperus esculentus), read-out: Visual Growth Reduction (%) 14 Days After Application CYPES
# [9] = Echinochloa crus-galli, barnyardgrass (Echinochloa crus-galli), read-out: Visual Growth Reduction (%) 14 Days After Application ECHCG
# [10] = Oryza sativa, rice (Oryza sativa), read-out: Visual Growth Reduction (%) 14 Days After Application ORYSA
# [11] = Setaria faberi, giant foxtail (Setaria faberi), read-out: Visual Growth Reduction (%) 14 Days After Application SETFA
# [12] = Triticum aestivum, wheat, spring (Triticum aestivum), read-out: Visual Growth Reduction (%) 14 Days After Application TRZAS
# [13] = Zea mays, maize, corn (Zea mays), read-out: Visual Growth Reduction (%) 14 Days After Application ZEAMX
Structure (SMILES),"pest or weed control at 140 g/ha [1, 3]","pest or weed control at 140 g/ha ([1]; Amaranthus retroflexus, redroot pigweed (Amaranthus retroflexus), read-out: Visual Growth Reduction (%) 14 Days After Application, AMARE)","pest or weed control at 140 g/ha [1, 4]","pest or weed control at 140 g/ha [1, 5]","pest or weed control at 140 g/ha [1, 6]","pest or weed control at 140 g/ha [1, 7]",melting point,"pest or weed control at 140 g/ha [2, 8]","pest or weed control at 140 g/ha [2, 9]","pest or weed control at 140 g/ha [2, 10]","pest or weed control at 140 g/ha [2, 11]","pest or weed control at 140 g/ha [2, 12]","pest or weed control at 140 g/ha [2, 13]"
Nc1c(F)c(-c2cccc3ccsc23)nc(C(=O)O)c1Cl [Compound 3.25],0 to 29%,95 to 100%,75 to 84%,95 to 100%,0 to 29%,45 to 59%,183 to 185 °C,0 to 29%,0 to 29%,0 to 29%,0 to 29%,0 to 29%,0 to 29%
COC(=O)c1nc(-c2ccc3cnn(C)c3c2)c(F)c(N)c1Cl [Compound 4.07],45 to 59%,–,45 to 59%,0 to 29%,60 to 74%,95 to 100%,187 to 190 °C,0 to 29%,0 to 29%,0 to 29%,0 to 29%,0 to 29%,0 to 29%
Cn1ncc2ccc(-c3nc(C(=O)O)c(Cl)c(N)c3F)cc21 [Compound 4.08],0 to 29%,–,60 to 74%,95 to 100%,0 to 29%,85 to 94%,182 to 184 °C,0 to 29%,0 to 29%,0 to 29%,0 to 29%,0 to 29%,0 to 29%
